Test results taken from patent US20090247768A1, “CRYSTALLINE SULFONAMIDE-CONTAINING INDOLE COMPOUND AND PROCESS FOR PREPARING THE SAME” (priority 2003, published 2009).

Assay: Solid stability against light (impurity content by HPLC after storage)
Format: physicochemical
Conditions: for Impurity content (%): HPLC; for change in impurity content before and after storage: 25° C./1000 Lx, 1 month and 3 months
Experimental: Column: ODS column (inner diameter=4.6 mm, column length=250 mm, particle size=5 μm) Column temperature: 30° C. Detection wavenumber: 282 nm Flow rate: 1.0 mL/min Mobile phase: Solution A: CH3CN/H2O/70% HClO4=100/900/1 (v/v/v) Solution B: CH3CN/H2O/70% HClO4=900/100/1 (v/v/v)
All of the peaks and peak areas were calculated from the chromatogram, and the impurity amount for each peak (except for the peak of N-(3-cyano-4-methyl-1H-indol-7-yl)-3-cyanobenzenesulfonamide) was calculated according to the following formula.
Individual impurity content (%)=(individual impurity peak area)/(total of all peak areas)×100
Peaks with impurity contents of 0.05% or greater were recorded as impurity peaks, and their total was recorded as the impurity content of the crystals.
Impurity content (%)=Total of individual impurity contents (%)
The crystals obtained in Example 1C, Example 1E and Example 1F were stored for 1 month and 3 months at 25° C./1000 Lx (LT-120D3J Light Stability Tester by Nagano Science, Japan), and then the impurity contents were measured by HPLC.
HPLC was conducted under the same conditions as in Test Example 1, except that elution was performed with the gradient program shown in Table 14.
The impurity content of the crystals was determined by the same method as described for Test Example 1. […] That is, the crystals obtained in Examples 1F and 1C (Form A and Form C) clearly had higher stability against light.

[1] = solid crystals stored at 25° C./1000 Lx/1 month
[2] = solid crystals stored at 25° C./1000 Lx/3 months

SMILES	Impurity content (%) [1]	Impurity content (%) [2]	change in impurity content before and after storage (solid crystals)	Impurity content (%) (solid crystals, before storage)
Cc1ccc(NS(=O)(=O)c2cccc(C#N)c2)c2[nH]cc(C#N)c12 [Example 1C, N-(3-cyano-4-methyl-1H-indol-7-yl)-3-cyanobenzenesulfonamide]	0.51%	0.51%	no change	0.51%
Cc1ccc(NS(=O)(=O)c2cccc(C#N)c2)c2[nH]cc(C#N)c12 [Example 1F, N-(3-cyano-4-methyl-1H-indol-7-yl)-3-cyanobenzenesulfonamide]	0.41%	0.51%	no change	0.42%
Cc1ccc(NS(=O)(=O)c2cccc(C#N)c2)c2[nH]cc(C#N)c12 [Example 1E, N-(3-cyano-4-methyl-1H-indol-7-yl)-3-cyanobenzenesulfonamide]	0.83%	4.44%	increased	0.50%
